Experimental findings from ChEMBL document CHEMBL4382244, “QSAR of 1,4-benzoxazin-3-one antimicrobials and their drug design perspectives” (2018) are described below.

Holding throughout (assay type): functional
For assay [1], the system named is Candida albicans. Description: Antifungal activity against Candida albicans after 24 hrs by disk diffusion method.
For assay [2], the system named is Staphylococcus aureus. Description: Antibacterial activity against Staphylococcus aureus ATCC 25923 after 24 hrs by disk diffusion method. Conditions: ATCC 25923, 24 h.
In assay [3] the test system is Candida albicans. Description: Antifungal activity against Candida albicans after 24 hrs by spectrophotometric method.
In assay [4] the test system is Escherichia coli. Description: Antibacterial activity against Escherichia coli ATCC 25922 after 24 hrs by disk diffusion method. Conditions: ATCC 25922, 24 h.
Another assay concerns Klebsiella pneumoniae. Description: Antibacterial activity against Klebsiella pneumoniae RSKK 576 after 16 to 20 hrs by microdilution method.
Assay [5] relates to Staphylococcus aureus. Description: Antibacterial activity against Staphylococcus aureus ATCC 29213 after 16 to 20 hrs by microdilution method.
Assay [6] concerns Escherichia coli. Description: Antibacterial activity against Escherichia coli ATCC 25922 after 16 to 20 hrs by microdilution method.
The subject of a further assay is Enterococcus faecalis. Description: Antibacterial activity against Enterococcus faecalis ATCC 29212 after 16 to 20 hrs by microdilution method.
Assay [7] deals with Staphylococcus aureus. Description: Antibacterial activity against Staphylococcus aureus.
The test system of assay [8] is Pseudomonas aeruginosa. Description: Antibacterial activity against Pseudomonas aeruginosa.
The subject of assay [9] is Pseudomonas aeruginosa. Description: Antibacterial activity against Pseudomonas aeruginosa ATCC 10145 after 16 to 20 hrs by microdilution method.
Assay [10] has as its system Escherichia coli. Description: Antibacterial activity against Escherichia coli.
For assay [11], the system named is Candida albicans. Description: Antifungal activity against Candida albicans.
For the next assay, the system named is Bacillus subtilis. Description: Antibacterial activity against Bacillus subtilis.
Assay [12] concerns Candida albicans. Description: Antifungal activity against Candida albicans CA-6 by micro-dilution method.
The test system of the next assay is Saccharomyces cerevisiae. Description: Antifungal activity against Saccharomyces cerevisiae ATCC 9763 by micro-dilution method.
In a further assay the test system is Pichia kudriavzevii. Description: Antifungal activity against Candida krusei ATCC 6258 by micro-dilution method.

Each structure is given as a SMILES string. Values after ≈ are worked out from the molar mass of the structure shown.

In the case of `O=C1COc2ccccc2N1O`, the MIC worked out at 2020 µM (≈ 333 µg/mL) with Candida albicans [1], 2020 µM (≈ 333 µg/mL) against Staphylococcus aureus [2], 2120 µM (≈ 350 µg/mL) with Candida albicans [3] and 7.57 mM (≈ 1250 µg/mL) with Escherichia coli [4].
Regarding `COc1ccc2c(c1)OC(O)C(=O)N2O` (stereo not given), the MIC was determined as 2370 µM (≈ 500 µg/mL) in the assay on Candida albicans [1], 1580 µM (≈ 333 µg/mL) with Staphylococcus aureus [2], 2370 µM (≈ 500 µg/mL) with Candida albicans [3] and 3.15 mM (≈ 666 µg/mL) in the assay with Escherichia coli [4].
Regarding `COc1ccc2c(c1)OCC(=O)N2O`, the MIC was found to be 850 µM (≈ 166 µg/mL) in the assay with Candida albicans [1], 3410 µM (≈ 666 µg/mL) in the assay on Staphylococcus aureus [2], 768 µM (≈ 150 µg/mL) with Candida albicans [3] and 6.4 mM (≈ 1250 µg/mL) against Escherichia coli [4].
With `COC1Oc2ccccc2N(O)C1=O` (stereo not given), the MIC in the assay on Candida albicans [1] amounted to 3410 µM (≈ 666 µg/mL); with Staphylococcus aureus [2] it was 2560 µM (≈ 500 µg/mL); with Candida albicans [3] it was 3330 µM (≈ 650 µg/mL).
Consider `CCOC(=O)CC1Oc2ccc(C)cc2NC1=O` (stereo not given), for which the MIC was 457 µM (≈ 114 µg/mL) against Klebsiella pneumoniae; 914 µM (≈ 228 µg/mL) against Staphylococcus aureus [5]; 457 µM (≈ 114 µg/mL) with Escherichia coli [6]; 457 µM (≈ 114 µg/mL) against Enterococcus faecalis; 89.2 µM (≈ 22.2 µg/mL) against Staphylococcus aureus [7]; 178 µM (≈ 44.5 µg/mL) against Pseudomonas aeruginosa [8]. Also, the MIC against Pseudomonas aeruginosa [9] was 457 µM (≈ 114 µg/mL); in the assay on Escherichia coli [10], 89.2 µM (≈ 22.2 µg/mL); against Candida albicans [11] it was 89.2 µM (≈ 22.2 µg/mL); against Bacillus subtilis it was 89.2 µM (≈ 22.2 µg/mL).
Regarding `N#Cc1ccc2c(c1)OC(O)C(=O)N2O` (stereo not given), the MIC with Candida albicans [1] and in the assay on Staphylococcus aureus [2] was 7280 µM (≈ 1500 µg/mL) each time.
For the compound `CCOC(=O)CC1Oc2cc([N+](=O)[O-])ccc2NC1=O` (stereo not given), the MIC with Staphylococcus aureus [7] amounted to 121 µM (≈ 33.8 µg/mL); against Pseudomonas aeruginosa [8], 121 µM (≈ 33.8 µg/mL); against Escherichia coli [10] it was 241 µM (≈ 67.6 µg/mL); against Candida albicans [11], 121 µM (≈ 33.8 µg/mL); with Bacillus subtilis, 241 µM (≈ 67.6 µg/mL).
For the compound `CCOC(=O)CC1Oc2cccc([N+](=O)[O-])c2NC1=O` (stereo not given), the MIC against Klebsiella pneumoniae amounted to 457 µM (≈ 128 µg/mL); against Staphylococcus aureus [5] it was 914 µM (≈ 256 µg/mL); against Escherichia coli [6] it was 457 µM (≈ 128 µg/mL); against Enterococcus faecalis, 457 µM (≈ 128 µg/mL); against Pseudomonas aeruginosa [9], 457 µM (≈ 128 µg/mL).
For `CCOC(=O)CC1Oc2ccc(C(O)Cn3ccnc3)cc2N(C)C1=O` (stereo not given), the MIC with Candida albicans [12] came out at 39.2 µM (≈ 14.1 µg/mL); in the assay with Saccharomyces cerevisiae, 19.6 µM (≈ 7.04 µg/mL); against Pichia kudriavzevii it was 39.2 µM (≈ 14.1 µg/mL).
Turning to `CCOC(=O)CC1Oc2cccc(C)c2NC1=O` (stereo not given), the MIC with Klebsiella pneumoniae, against Staphylococcus aureus [5], in the assay on Escherichia coli [6], in the assay on Enterococcus faecalis and in the assay on Pseudomonas aeruginosa [9] was 1030 µM (≈ 256 µg/mL) each time.
As for `CCOC(=O)CC1Oc2cc(N)ccc2NC1=O` (stereo not given), the MIC in the assay on Klebsiella pneumoniae is 1030 µM (≈ 257 µg/mL); in the assay on Staphylococcus aureus [5], 1030 µM (≈ 257 µg/mL); against Escherichia coli [6], 1030 µM (≈ 257 µg/mL); against Enterococcus faecalis, 1030 µM (≈ 257 µg/mL); with Staphylococcus aureus [7], 201 µM (≈ 50.2 µg/mL); against Pseudomonas aeruginosa [8], 201 µM (≈ 50.2 µg/mL). Besides, the MIC worked out at 1030 µM (≈ 257 µg/mL) with Pseudomonas aeruginosa [9], 201 µM (≈ 50.2 µg/mL) in the assay with Escherichia coli [10], 100 µM (≈ 25.1 µg/mL) in the assay with Candida albicans [11] and 201 µM (≈ 50.2 µg/mL) in the assay with Bacillus subtilis.
For the compound `O=C(O)CC1Oc2ccccc2NC1=O` (stereo not given), the MIC against Klebsiella pneumoniae was determined as 1090 µM (≈ 225 µg/mL); in the assay on Staphylococcus aureus [5] it was 1090 µM (≈ 225 µg/mL); against Escherichia coli [6], 1090 µM (≈ 225 µg/mL); in the assay on Enterococcus faecalis, 1090 µM (≈ 225 µg/mL); against Staphylococcus aureus [7], 106 µM (≈ 22 µg/mL); against Pseudomonas aeruginosa [8], 212 µM (≈ 44 µg/mL). The MIC is 544 µM (≈ 113 µg/mL) in the assay with Pseudomonas aeruginosa [9], 212 µM (≈ 44 µg/mL) with Escherichia coli [10], 106 µM (≈ 22 µg/mL) against Candida albicans [11] and 212 µM (≈ 44 µg/mL) in the assay with Bacillus subtilis.
Take `CCOC(=O)CC1Oc2cc(C)ccc2NC1=O` (stereo not given): the MIC against Staphylococcus aureus [7] is 303 µM (≈ 75.5 µg/mL); against Pseudomonas aeruginosa [8], 151 µM (≈ 37.7 µg/mL); in the assay with Escherichia coli [10] it was 151 µM (≈ 37.7 µg/mL); in the assay on Bacillus subtilis it was 303 µM (≈ 75.5 µg/mL).
Take `COc1ccc2c(c1)OC(O)C(=O)N2` (stereo not given): the MIC in the assay on Candida albicans [3] stood at 5120 µM (≈ 1000 µg/mL).
As to `CCOC(=O)CC1Oc2ccc(Cl)cc2NC1=O` (stereo not given), the MIC against Klebsiella pneumoniae was 949 to 1030 µM (≈ 256 to 277 µg/mL); against Staphylococcus aureus [5], 949 to 1030 µM (≈ 256 to 277 µg/mL); against Escherichia coli [6] it was 949 to 1030 µM (≈ 256 to 277 µg/mL); against Enterococcus faecalis, 949 to 1030 µM (≈ 256 to 277 µg/mL); against Staphylococcus aureus [7], 201 µM (≈ 54.1 µg/mL); against Pseudomonas aeruginosa [8], 100 µM (≈ 27 µg/mL). The MIC is 949 to 1030 µM (≈ 256 to 277 µg/mL) with Pseudomonas aeruginosa [9], 100 µM (≈ 27 µg/mL) in the assay on Escherichia coli [10], 100 µM (≈ 27 µg/mL) against Candida albicans [11] and 201 µM (≈ 54.1 µg/mL) in the assay with Bacillus subtilis.
